The numbers were not newly measured in US11039615B2, “Methods of processing chlorhexidine-containing polymerizable compositions and antimicrobial articles formed thereby” (entrotech life sciences, inc., priority 2014, dated 2021), which cites them from elsewhere.

Structures are written as SMILES. A value given as a limit tells only on which side of the number the result lay.

For this data set the following is noted: documented in Ranganathan 1996.

As for `[H]/N=C(\N/C(=N/[H])NCCCCCCNC(=N)NC(=N)Nc1ccc(Cl)cc1)Nc1ccc(Cl)cc1` [chlorhexidine], the “temperature at which chlorhexidine decomposes to PCA” value is no less than 40 °C.
